Laboratory results published in EP1027349B1, “TETRAHYDROFURAN PHOSPHATE- AND HYDROXY ESTERS, AS PRODRUGS FOR THE CORRESPONDING ANTIFUNGAL AGENT” (SCHERING CORPORATION, priority 1997, dated 1999).

Tests used:
[1] = tested on: Aspergillus fumigatus; experiment: Pulmonary Aspergillus fumigatus infection model in mice (Loebenberg et al.)
[2] = Plasma concentrations and PK parameters of the compound of formula IV in mice after intravenous administration of di-NMG salt prodrugs; format: in vivo, mouse; design: AUC: unit not given here; details: for Concentrations of the compound of formula IV in pooled mouse plasma, Pool 1 / Concentrations of the compound of formula IV in pooled mouse plasma, Pool 2: 2 mice/pool; for AUC: Table 3 summary: area under the curve from time zero to 24 hrs of the compound of formula IV in mouse plasma; for AUC / Bioavallability: intravenous, 20 mg/kg formula IV dose equivalent of the di-NMG salt in sterile water; for Bioavallability: of the compound of formula IV in mouse plasma
[3] = Pharmacokinetic (metabolism) studies in human tissues and serum; format: in vitro ADME; details: result in words
[4] = tested on: Cryptococcus neoformans (n=9); experiment: In vitro antifungal activity (MIC), NCCLS standard M27A; details: for MIC Range: Cryptococcus neoformans (n=9); for MIC: Cryptococcus neoformans, read-out: G mean MICs
[5] = tested on: Candida species (n=41); experiment: as above; details: for MIC: Candida, read-out: G mean MICs; for MIC Range: Candida species (n=41)
[6] = tested on: Aspergillus species (n=30); experiment: In vitro antifungal activity (MIC), Espinel-Ingroff's methodology; details: for MIC: Aspergillus, read-out: G mean MICs; for MIC Range: Aspergillus species (n=30)
[7] = Antifungal activity in in vivo tests in mice; details: compared with itraconazole, fluconazole and azoles of USP 5,039,676 and WO 93/09114, result in words
[8] = 0.017 hr (1 min) after intravenous administration of 20 mg/kg compound of formula IV dose equivalent of the di-NMG salt in sterile water
[9] = 0.017 hr (1 min) after intravenous administration of 20 mg/kg compound of formula IV dose equivalent of the di-NMG salt in sterile water, mean of 2 pools
[10] = 0.05 hr (3 min) after intravenous administration of 20 mg/kg compound of formula IV dose equivalent of the di-NMG salt in sterile water
[11] = 0.05 hr (3 min) after intravenous administration of 20 mg/kg compound of formula IV dose equivalent of the di-NMG salt in sterile water, mean of 2 pools
[12] = 0.083 hr (5 min) after intravenous administration of 20 mg/kg compound of formula IV dose equivalent of the di-NMG salt in sterile water
[13] = 0.083 hr (5 min) after intravenous administration of 20 mg/kg compound of formula IV dose equivalent of the di-NMG salt in sterile water, mean of 2 pools
[14] = 0.25 hr (15 min) after intravenous administration of 20 mg/kg compound of formula IV dose equivalent of the di-NMG salt in sterile water
[15] = 0.25 hr (15 min) after intravenous administration of 20 mg/kg compound of formula IV dose equivalent of the di-NMG salt in sterile water, mean of 2 pools
[16] = 0.5 hr (30 min) after intravenous administration of 20 mg/kg compound of formula IV dose equivalent of the di-NMG salt in sterile water
[17] = 0.5 hr (30 min) after intravenous administration of 20 mg/kg compound of formula IV dose equivalent of the di-NMG salt in sterile water, mean of pools
[18] = 1 hr. after intravenous administration of 20 mg/kg compound of formula IV dose equivalent of the di-NMG salt in sterile water
[19] = 1 hr. after intravenous administration of 20 mg/kg compound of formula IV dose equivalent of the di-NMG salt in sterile water, mean of 2 pools
[20] = 3 hr. after intravenous administration of 20 mg/kg compound of formula IV dose equivalent of the di-NMG salt in sterile water
[21] = 3 hr. after intravenous administration of 20 mg/kg compound of formula IV dose equivalent of the di-NMG salt in sterile water, mean of 2 pools
[22] = 6 hr. after intravenous administration of 20 mg/kg compound of formula IV dose equivalent of the di-NMG salt in sterile water
[23] = 6 hr. after intravenous administration of 20 mg/kg compound of formula IV dose equivalent of the di-NMG salt in sterile water, mean of 2 pools
[24] = 24 hr. after intravenous administration of 20 mg/kg compound of formula IV dose equivalent of the di-NMG salt in sterile water
[25] = 24 hr. after intravenous administration of 20 mg/kg compound of formula IV dose equivalent of the di-NMG salt in sterile water, mean of 2 pools

| SMILES | Concentrations of the compound of formula IV in pooled mouse plasma, Pool 1 [2, 8] | Concentrations of the compound of formula IV in pooled mouse plasma, Pool 2 [2, 8] | Concentrations of the compound of formula IV in pooled mouse plasma, Mean [2, 9] | Concentrations of the compound of formula IV in pooled mouse plasma, Pool 1 [2, 10] | Concentrations of the compound of formula IV in pooled mouse plasma, Pool 2 [2, 10] | Concentrations of the compound of formula IV in pooled mouse plasma, Mean [2, 11] | Concentrations of the compound of formula IV in pooled mouse plasma, Pool 1 [2, 12] | Concentrations of the compound of formula IV in pooled mouse plasma, Pool 2 [2, 12] | Concentrations of the compound of formula IV in pooled mouse plasma, Mean [2, 13] | Concentrations of the compound of formula IV in pooled mouse plasma, Pool 1 [2, 14] | Concentrations of the compound of formula IV in pooled mouse plasma, Pool 2 [2, 14] | Concentrations of the compound of formula IV in pooled mouse plasma, Mean [2, 15] | Concentrations of the compound of formula IV in pooled mouse plasma, Pool 1 [2, 16] | Concentrations of the compound of formula IV in pooled mouse plasma, Mean [2, 17] | Concentrations of the compound of formula IV in pooled mouse plasma, Pool 1 [2, 18] | Concentrations of the compound of formula IV in pooled mouse plasma, Pool 2 [2, 18] | MIC Range [4] | MIC [4] | MIC [5] | MIC [6] | also measured |
| --- | --- | --- | --- | --- | --- | --- | --- | --- | --- | --- | --- | --- | --- | --- | --- | --- | --- | --- | --- | --- | --- |
| OC(Cn1cncn1)(Cn1cncn1)c1ccc(F)cc1F [fluconazole, reference compound] | – | – | – | – | – | – | – | – | – | – | – | – | – | – | – | – | – | – | – | – | activity in Aspergillus pulmonary infection model ([1]; mice, result in words): inactive |
| CC[C@@H]([C@H](C)OC(=O)CCCCOP(=O)(O)O)n1ncn(-c2ccc(N3CCN(c4ccc(OC[C@@H]5CO[C@@](Cn6cncn6)(c6ccc(F)cc6F)C5)cc4)CC3)cc2)c1=O [Formula V.2NMG, reference compound] | 0 ng/mL | 0 ng/mL | 0 ng/mL | 738 ng/mL | 663 ng/mL | 723 ng/mL | 1040 ng/mL | 1430 ng/mL | 1240 ng/mL | 1220 ng/mL | 407 ng/mL | 814 ng/mL | 1990 ng/mL | 1990 ng/mL | 2730 ng/mL | 2630 ng/mL | – | – | – | – | Concentrations of the compound of formula IV in pooled mouse plasma, Mean [2, 19]: 2680 ng/mL; Concentrations of the compound of formula IV in pooled mouse plasma, Pool 1 [2, 20]: 923 ng/mL; Concentrations of the compound of formula IV in pooled mouse plasma, Pool 2 [2, 20]: 2510 ng/mL; Concentrations of the compound of formula IV in pooled mouse plasma, Mean [2, 21]: 1720 ng/mL; Concentrations of the compound of formula IV in pooled mouse plasma, Pool 1 [2, 22]: 2590 ng/mL; Concentrations of the compound of formula IV in pooled mouse plasma, Pool 2 [2, 22]: 1900 ng/mL; Concentrations of the compound of formula IV in pooled mouse plasma, Mean [2, 23]: 2250 ng/mL; Concentrations of the compound of formula IV in pooled mouse plasma, Pool 1 [2, 24]: 447 ng/mL; Concentrations of the compound of formula IV in pooled mouse plasma, Pool 2 [2, 24]: 515 ng/mL; Concentrations of the compound of formula IV in pooled mouse plasma, Mean [2, 25]: 481 ng/mL; AUC [2]: 36.7; Bioavallability [2]: 30% |
| CC[C@@H]([C@H](C)OC(=O)CCCOP(=O)(O)O)n1ncn(-c2ccc(N3CCN(c4ccc(OC[C@@H]5CO[C@@](Cn6cncn6)(c6ccc(F)cc6F)C5)cc4)CC3)cc2)c1=O [Formula II] | – | – | – | – | – | – | – | – | – | – | – | – | – | – | – | – | 0.125 to 32 µg/mL | 1.9 µg/mL | 7.5 µg/mL | 5.9 µg/mL | metabolism [3]: metabolized to the compound of formula IV via the metabolite represented by formula III; survival ([1]; doses of 10 mg/kg, mice with a pulmonary Aspergillus fumigatus infection): 70% |
| CC[C@@H]([C@H](C)O)n1ncn(-c2ccc(N3CCN(c4ccc(OC[C@@H]5CO[C@@](Cn6cncn6)(c6ccc(F)cc6F)C5)cc4)CC3)cc2)c1=O [Formula IV, reference compound] | – | – | – | – | – | – | – | – | – | – | – | – | – | – | – | – | ≤0.0150 to 0.5 µg/mL | 0.04 µg/mL | 0.2 µg/mL | 0.1 µg/mL | MIC Range [5]: ≤0.0156 to 8 µg/mL; MIC Range [6]: ≤0.0156 to 1 µg/mL; antifungal activity in in vivo tests [7]: unexpectedly better than that of existing antifungal agents |
| CC[C@@H]([C@H](C)OC(=O)CCCOP(=O)(O)O)n1ncn(-c2ccc(N3CCN(c4ccc(OC[C@@H]5CO[C@@](Cn6cncn6)(c6ccc(F)cc6F)C5)cc4)CC3)cc2)c1=O [Formula II.2NMG] | 171 ng/mL | 164 ng/mL | 168 ng/mL | 378 ng/mL | 297 ng/mL | 338 ng/mL | 798 ng/mL | 817 ng/mL | 808 ng/mL | 1570 ng/mL | 2720 ng/mL | 2150 ng/mL | 3020 ng/mL | 2680 ng/mL | 4460 ng/mL | 3950 ng/mL | – | – | – | – | Concentrations of the compound of formula IV in pooled mouse plasma, Pool 2 [2, 16]: 2340 ng/mL; Concentrations of the compound of formula IV in pooled mouse plasma, Mean [2, 19]: 4210 ng/mL; Concentrations of the compound of formula IV in pooled mouse plasma, Pool 1 [2, 20]: 5160 ng/mL; Concentrations of the compound of formula IV in pooled mouse plasma, Pool 2 [2, 20]: 5630 ng/mL; Concentrations of the compound of formula IV in pooled mouse plasma, Mean [2, 21]: 5400 ng/mL; Concentrations of the compound of formula IV in pooled mouse plasma, Pool 1 [2, 22]: 5960 ng/mL; Concentrations of the compound of formula IV in pooled mouse plasma, Pool 2 [2, 22]: 3590 ng/mL; Concentrations of the compound of formula IV in pooled mouse plasma, Mean [2, 23]: 4780 ng/mL; Concentrations of the compound of formula IV in pooled mouse plasma, Pool 1 [2, 24]: 915 ng/mL; Concentrations of the compound of formula IV in pooled mouse plasma, Pool 2 [2, 24]: 992 ng/mL; Concentrations of the compound of formula IV in pooled mouse plasma, Mean [2, 25]: 954 ng/mL; AUC [2]: 79.1; Bioavallability [2]: 65% |
| CC[C@@H]([C@H](C)OC(=O)CCCO)n1ncn(-c2ccc(N3CCN(c4ccc(OC[C@@H]5CO[C@@](Cn6cncn6)(c6ccc(F)cc6F)C5)cc4)CC3)cc2)c1=O [Formula III, 2(S)-[4-{4-{4-{4-[[(R-Cis) -2-(2,4-difluorophenyl)-tetrahydro-2-(1H-1,2,4-triazol-1-ylmethyl)-4-furanyl]methoxy]phenyl]-1-piperazinyl]phenyl]-4,5-dihydro-5-oxo-1H-1,2,4-triazol-1-yl]-1-(S)-methylbutyl-4-hydroxy-butanoate] | – | – | – | – | – | – | – | – | – | – | – | – | – | – | – | – | 0.0156 to 0.5 µg/mL | 0.09 µg/mL | 0.3 µg/mL | 0.2 µg/mL | MIC Range [5]: ≤ 0.0156 to 8 µg/mL; MIC Range [6]: 0.0313 to 2 µg/mL; antifungal activity in in vivo tests [7]: unexpectedly better than that of existing antifungal agents |
